The text below walks through data of publication PMC10763615, “Identification and engineering of potent cyclic peptides with selective or promiscuous binding through biochemical profiling and bioinformatic data analysis” (RSC Chemical Biology, 2023).

Common to all, as to assay type: binding
Test [1] deals with T1, FGF-R1C ECD (Homo sapiens, UniProt P11362).
T1 sequence (P11362 22-376 limits assumed): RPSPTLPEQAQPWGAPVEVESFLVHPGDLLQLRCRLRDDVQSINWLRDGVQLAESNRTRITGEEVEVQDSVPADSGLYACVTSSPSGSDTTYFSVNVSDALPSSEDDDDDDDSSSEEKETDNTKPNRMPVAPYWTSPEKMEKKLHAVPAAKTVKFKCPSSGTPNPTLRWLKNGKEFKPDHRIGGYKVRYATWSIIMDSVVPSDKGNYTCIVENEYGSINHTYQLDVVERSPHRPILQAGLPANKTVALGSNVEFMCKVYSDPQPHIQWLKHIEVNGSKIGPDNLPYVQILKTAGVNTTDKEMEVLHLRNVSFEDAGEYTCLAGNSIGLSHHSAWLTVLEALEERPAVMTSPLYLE
The test can be described thus: biochemical. The arrangement: DNA constructs for the extracellular domain (ECD) of human FGF-; HPC4 (C); made in house; host or cells: HEK 293-6E. In a few lines: (§1)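 Biolayer interferometry with biotinylated FGF-R ECD on streptavidin biosensors in PBS pH 7.4, 0.05% Tween-20, 0.01% BSA. Multi-concentration: purified peptide dilution series fitted to a multi-point KD model.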

For test [2], the target named is T2, FGF-R3C ECD (Homo sapiens, UniProt P22607).
T2 sequence (P22607 23-375 limits assumed): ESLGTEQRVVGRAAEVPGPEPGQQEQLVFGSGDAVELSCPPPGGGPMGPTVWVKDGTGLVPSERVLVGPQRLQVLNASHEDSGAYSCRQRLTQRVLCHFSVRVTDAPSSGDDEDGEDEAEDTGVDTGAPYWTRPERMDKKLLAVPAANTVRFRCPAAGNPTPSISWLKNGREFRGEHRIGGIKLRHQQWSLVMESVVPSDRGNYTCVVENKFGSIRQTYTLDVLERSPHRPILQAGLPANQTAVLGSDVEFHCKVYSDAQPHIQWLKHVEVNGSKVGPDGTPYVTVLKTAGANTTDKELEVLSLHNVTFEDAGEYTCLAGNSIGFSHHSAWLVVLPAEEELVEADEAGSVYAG
Description: biochemical. The arrangement: DNA constructs for the extracellular domain (ECD) of human FGF-; HPC4 (C); made in house; host or cells: HEK 293-6E. In a few lines:
as §1

For test [3], the target named is T3, FGF-R4 ECD (Homo sapiens, UniProt P22455).
T3 construct: DNA constructs for the extracellular domain (ECD) of human FGF-; HPC4 (C); made in house; host or cells: HEK 293-6E
T3 sequence (P22455 22-369 limits assumed): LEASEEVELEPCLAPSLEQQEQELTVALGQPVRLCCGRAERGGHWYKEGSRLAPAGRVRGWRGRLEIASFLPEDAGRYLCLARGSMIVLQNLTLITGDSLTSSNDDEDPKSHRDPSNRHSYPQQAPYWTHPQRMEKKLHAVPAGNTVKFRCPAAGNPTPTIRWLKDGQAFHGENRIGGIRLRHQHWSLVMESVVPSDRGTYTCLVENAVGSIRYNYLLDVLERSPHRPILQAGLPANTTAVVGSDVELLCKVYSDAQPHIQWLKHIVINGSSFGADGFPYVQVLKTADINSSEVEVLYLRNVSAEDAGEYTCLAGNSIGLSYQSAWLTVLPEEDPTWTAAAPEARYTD
Description: single concentration BLI of crude peptides. The conditions noted are these: read-out: KD (4). Put shortly: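 BLI, streptavidin sensors loaded with biotinylated receptor ECD. Single-point: ~1 μM crude peptide, PBS pH7.4/0.05% Tween-20/0.01% BSA; association then dissociation in buffer. KD corrected for UPLC-CAD-determined concentration.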

Where [4] appears, read: crude T18 selection 1 (1:1:1) peptides, single concentration BLI (Table S4).
Setting [5] is: crude NNK peptides, single concentration BLI (Table S3).

A word on the pKd: it is −log10 of the Kd, conventionally taken in molar units.

The structures appear in SMILES notation. pKd: −log10 of the molar value. Where two headings read alike, the source gives them in different places. Positions of bridges follow the written chain, without caps; N, C: chain ends. Residues, ends and D or L forms follow the SMILES beside them.

`CC[C@H](C)[C@@H]1NC(=O)[C@H](Cc2ccc(O)cc2)NC(=O)[C@H](Cc2c[nH]c3ccccc23)NC(=O)[C@H](CCCCN)NC(=O)[C@H](C(C)C)NC(=O)[C@H](Cc2ccccc2)NC(=O)[C@H](CCCCN)NC(=O)[C@H](CC(=O)O)NC(=O)[C@@H](NC(=O)[C@H](CCSC)NC(C)=O)CSSC[C@@H](C(=O)NCC(=O)N[C@@H](CO)C(=O)NCC(=O)N[C@@H](CO)C(=O)N[C@@H](CCC(=O)O)C(=O)N[C@@H](CCC(=O)O)C(=O)NCC(=O)N[C@@H](CO)C(=O)NCC(=O)N[C@@H](CO)C(=O)N[C@@H](CC(=O)O)C(=O)N[C@@H](Cc2ccc(O)cc2)C(=O)N[C@@H](CCCCN)C(=O)N[C@@H](CC(=O)O)C(=O)N[C@@H](CC(=O)O)C(=O)N[C@@H](CC(=O)O)C(=O)N[C@@H](CC(=O)O)C(=O)N[C@@H](CCCCN)C(N)=O)NC(=O)[C@H](Cc2c[nH]cn2)NC(=O)[C@H](CCCNC(=N)N)NC(=O)[C@H](Cc2ccccc2)NC(=O)[C@H](C(C)C)NC1=O` (Ac-MCDKFVKWYIVFRHCGSGSEEGSGSDYKDDDDK-NH2; disulfide 2-15): the pKd in test [1] is below 5.00; in test [2] it was below 5.00; in test [3] (setting [4]), 9.00.

On to `CSCC[C@H](NC(C)=O)C(=O)N[C@H]1CSSC[C@@H](C(=O)NCC(=O)N[C@@H](CO)C(=O)NCC(=O)N[C@@H](CO)C(=O)N[C@@H](CC(=O)O)C(=O)N[C@@H](Cc2ccc(O)cc2)C(=O)N[C@@H](CCCCN)C(=O)N[C@@H](CC(=O)O)C(=O)N[C@@H](CC(=O)O)C(=O)N[C@@H](CC(=O)O)C(=O)N[C@@H](CC(=O)O)C(=O)N[C@@H](CCCCN)C(N)=O)NC(=O)[C@H](C)NC(=O)[C@H](CC(C)C)NC(=O)[C@H](CC(C)C)NC(=O)[C@H](C)NC(=O)[C@@H]2CCCN2C(=O)[C@H](Cc2ccccc2)NC(=O)[C@H](Cc2ccccc2)NC(=O)[C@H](CCCNC(=N)N)NC(=O)[C@H](Cc2c[nH]c3ccccc23)NC(=O)[C@H](Cc2ccccc2)NC1=O` (Ac-MCFWRFFPALLACGSGSDYKDDDDK-NH2; disulfide 2-13), for which the pKd in test [1], in test [2] and in test [3] (setting [5]) was below 5.00 in each case.

Turning to `CC[C@H](C)[C@@H]1NC(=O)[C@H](CC(C)C)NC(=O)[C@H](Cc2ccccc2)NC(=O)[C@H](Cc2ccc(O)cc2)NC(=O)[C@H](CCCCN)NC(=O)[C@H](C(C)C)NC(=O)[C@H](CCC(=O)O)NC(=O)[C@@H](NC(=O)[C@H](CCSC)NC(C)=O)CSSC[C@@H](C(=O)NCC(=O)N[C@@H](CO)C(=O)NCC(=O)N[C@@H](CO)C(=O)N[C@@H](CC(=O)O)C(=O)N[C@@H](Cc2ccc(O)cc2)C(=O)N[C@@H](CCCCN)C(=O)N[C@@H](CC(=O)O)C(=O)N[C@@H](CC(=O)O)C(=O)N[C@@H](CC(=O)O)C(=O)N[C@@H](CC(=O)O)C(=O)N[C@@H](CCCCN)C(N)=O)NC(=O)[C@H](Cc2c[nH]c3ccccc23)NC(=O)[C@H](CCCNC(=N)N)NC(=O)[C@H](CCCCN)NC(=O)[C@H](Cc2c[nH]c3ccccc23)NC1=O` (Ac-MCEVKYFLIWKRWCGSGSDYKDDDDK-NH2; disulfide 2-14), the pKd in test [1] was 6.19; in test [2] it was below 5.00; in test [3] (setting [4]), 7.82.

Regarding `CSCC[C@H](NC(C)=O)C(=O)N[C@@H](CCSC)C(=O)N[C@@H](CO)C(=O)N[C@@H](Cc1c[nH]cn1)C(=O)N[C@H]1CSSC[C@@H](C(=O)NCC(=O)N[C@@H](CO)C(=O)NCC(=O)N[C@@H](CO)C(=O)N[C@@H](CC(=O)O)C(=O)N[C@@H](Cc2ccc(O)cc2)C(=O)N[C@@H](CCCCN)C(=O)N[C@@H](CC(=O)O)C(=O)N[C@@H](CC(=O)O)C(=O)N[C@@H](CC(=O)O)C(=O)N[C@@H](CC(=O)O)C(=O)N[C@@H](CCCCN)C(N)=O)NC(=O)[C@H](CC(C)C)NC(=O)[C@H](CC(C)C)NC(=O)[C@H](C(C)C)NC(=O)[C@H](CCCCN)NC(=O)[C@H](Cc2ccccc2)NC(=O)[C@H](CC(C)C)NC(=O)[C@H](Cc2c[nH]c3ccccc23)NC1=O` (Ac-MMSHCWLFKVLLCGSGSDYKDDDDK-NH2; disulfide 5-13), the pKd in test [1] was below 5.00; in test [2], below 5.00; in test [3] (setting [5]) it was 6.62.

Take `CC[C@H](C)[C@@H]1NC(=O)[C@H](Cc2c[nH]cn2)NC(=O)[C@@H](NC(=O)[C@H](CCSC)NC(C)=O)CSSC[C@@H](C(=O)NCC(=O)N[C@@H](CO)C(=O)NCC(=O)N[C@@H](CO)C(=O)N[C@@H](CCC(=O)O)C(=O)N[C@@H](CCC(=O)O)C(=O)NCC(=O)N[C@@H](CO)C(=O)NCC(=O)N[C@@H](CO)C(=O)N[C@@H](CC(=O)O)C(=O)N[C@@H](Cc2ccc(O)cc2)C(=O)N[C@@H](CCCCN)C(=O)N[C@@H](CC(=O)O)C(=O)N[C@@H](CC(=O)O)C(=O)N[C@@H](CC(=O)O)C(=O)N[C@@H](CC(=O)O)C(=O)N[C@@H](CCCCN)C(N)=O)NC(=O)[C@H](Cc2c[nH]cn2)NC(=O)[C@H](CCCCN)NC(=O)[C@H](CCCNC(=N)N)NC(=O)[C@H](C(C)C)NC(=O)[C@H](CC(C)C)NC(=O)[C@H](CCC(N)=O)NC(=O)[C@H](Cc2c[nH]c3ccccc23)NC(=O)[C@H](Cc2ccc(O)cc2)NC(=O)[C@H](CCCNC(=N)N)NC1=O` (Ac-MCHIRYWQLVRKHCGSGSEEGSGSDYKDDDDK-NH2; disulfide 2-14): the pKd in test [1] is below 5.00; in test [2], below 5.00; in test [3] (setting [4]), 8.00.

As for `CC[C@H](C)[C@@H]1NC(=O)[C@@H](NC(=O)[C@H](CCSC)NC(C)=O)CSSC[C@@H](C(=O)NCC(=O)N[C@@H](CO)C(=O)NCC(=O)N[C@@H](CO)C(=O)N[C@@H](CC(=O)O)C(=O)N[C@@H](Cc2ccc(O)cc2)C(=O)N[C@@H](CCCCN)C(=O)N[C@@H](CC(=O)O)C(=O)N[C@@H](CC(=O)O)C(=O)N[C@@H](CC(=O)O)C(=O)N[C@@H](CC(=O)O)C(=O)N[C@@H](CCCCN)C(N)=O)NC(=O)[C@H](C(C)C)NC(=O)[C@H](C)NC(=O)[C@H](Cc2c[nH]c3ccccc23)NC(=O)[C@H](Cc2ccccc2)NC(=O)[C@H](CC(=O)O)NC(=O)[C@H](CO)NC(=O)[C@H](CC(C)C)NC(=O)[C@H](CCCNC(=N)N)NC(=O)[C@H](Cc2ccc(O)cc2)NC1=O` (Ac-MCIYRLSDFWAVCGSGSDYKDDDDK-NH2; disulfide 2-13), the pKd in test [1] was 7.68; in test [2], 7.31; in test [3] (setting [5]) it was 6.88.

As to `CSCC[C@H](NC(C)=O)C(=O)N[C@H]1CSSC[C@@H](C(=O)NCC(=O)N[C@@H](CO)C(=O)NCC(=O)N[C@@H](CO)C(=O)N[C@@H](CCC(=O)O)C(=O)N[C@@H](CCC(=O)O)C(=O)NCC(=O)N[C@@H](CO)C(=O)NCC(=O)N[C@@H](CO)C(=O)N[C@@H](CC(=O)O)C(=O)N[C@@H](Cc2ccc(O)cc2)C(=O)N[C@@H](CCCCN)C(=O)N[C@@H](CC(=O)O)C(=O)N[C@@H](CC(=O)O)C(=O)N[C@@H](CC(=O)O)C(=O)N[C@@H](CC(=O)O)C(=O)N[C@@H](CCCCN)C(N)=O)NC(=O)[C@H](CCCCN)NC(=O)[C@H](CCCCN)NC(=O)[C@H](CCC(N)=O)NC(=O)[C@H](Cc2ccc(O)cc2)NC(=O)[C@H](CCCCN)NC(=O)[C@H](Cc2ccc(O)cc2)NC(=O)[C@H](Cc2c[nH]c3ccccc23)NC(=O)[C@H](CC(C)C)NC(=O)[C@H](C(C)C)NC(=O)[C@H]([C@@H](C)O)NC(=O)[C@H](Cc2ccc(O)cc2)NC1=O` (Ac-MCYTVLWYKYQKKCGSGSEEGSGSDYKDDDDK-NH2; disulfide 2-14), the pKd was below 5.00 in test [1], below 5.00 in test [2] and 9.00 in test [3] (setting [4]).
